Results published in ChEMBL document CHEMBL1201862, “PubChem BioAssay data set” (2004).
Calls of active or inactive are those of the source.

Columns and labels:
[1] = target: Peroxisome proliferator-activated receptor gamma/Nuclear receptor coactivator 1 (Homo sapiens, UniProt P37231); assay: TR-FRET dose response biochemical High Throughput Screening assay for agonists of the steroid receptor coactivator 1 (SRC-1) recruitment by the peroxisome proliferator-activated receptor gamma (PPAR gamma): non-selective agonists. [Related pubchem assays (depositor defined):AID1300, AID1808, AID504735, AID631]; assay type: protein assay
Chain of Peroxisome proliferator-activated receptor gamma/Nuclear receptor coactivator 1 (P37231 whole entry): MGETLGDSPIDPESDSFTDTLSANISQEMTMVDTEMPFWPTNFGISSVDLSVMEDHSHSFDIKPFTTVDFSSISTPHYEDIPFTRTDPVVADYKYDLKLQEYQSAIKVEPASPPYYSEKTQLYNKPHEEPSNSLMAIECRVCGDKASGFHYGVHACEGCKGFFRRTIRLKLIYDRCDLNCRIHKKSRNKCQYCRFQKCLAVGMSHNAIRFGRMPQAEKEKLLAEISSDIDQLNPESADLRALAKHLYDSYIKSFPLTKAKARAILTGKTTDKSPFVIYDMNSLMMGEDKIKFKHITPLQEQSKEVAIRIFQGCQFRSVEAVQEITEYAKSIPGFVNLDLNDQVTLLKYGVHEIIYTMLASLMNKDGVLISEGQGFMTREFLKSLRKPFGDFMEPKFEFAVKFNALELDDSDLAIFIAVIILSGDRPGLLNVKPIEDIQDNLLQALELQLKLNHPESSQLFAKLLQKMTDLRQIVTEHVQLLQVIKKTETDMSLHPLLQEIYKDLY
Chain of Peroxisome proliferator-activated receptor gamma/Nuclear receptor coactivator 1 (Q15788 whole entry, further chain): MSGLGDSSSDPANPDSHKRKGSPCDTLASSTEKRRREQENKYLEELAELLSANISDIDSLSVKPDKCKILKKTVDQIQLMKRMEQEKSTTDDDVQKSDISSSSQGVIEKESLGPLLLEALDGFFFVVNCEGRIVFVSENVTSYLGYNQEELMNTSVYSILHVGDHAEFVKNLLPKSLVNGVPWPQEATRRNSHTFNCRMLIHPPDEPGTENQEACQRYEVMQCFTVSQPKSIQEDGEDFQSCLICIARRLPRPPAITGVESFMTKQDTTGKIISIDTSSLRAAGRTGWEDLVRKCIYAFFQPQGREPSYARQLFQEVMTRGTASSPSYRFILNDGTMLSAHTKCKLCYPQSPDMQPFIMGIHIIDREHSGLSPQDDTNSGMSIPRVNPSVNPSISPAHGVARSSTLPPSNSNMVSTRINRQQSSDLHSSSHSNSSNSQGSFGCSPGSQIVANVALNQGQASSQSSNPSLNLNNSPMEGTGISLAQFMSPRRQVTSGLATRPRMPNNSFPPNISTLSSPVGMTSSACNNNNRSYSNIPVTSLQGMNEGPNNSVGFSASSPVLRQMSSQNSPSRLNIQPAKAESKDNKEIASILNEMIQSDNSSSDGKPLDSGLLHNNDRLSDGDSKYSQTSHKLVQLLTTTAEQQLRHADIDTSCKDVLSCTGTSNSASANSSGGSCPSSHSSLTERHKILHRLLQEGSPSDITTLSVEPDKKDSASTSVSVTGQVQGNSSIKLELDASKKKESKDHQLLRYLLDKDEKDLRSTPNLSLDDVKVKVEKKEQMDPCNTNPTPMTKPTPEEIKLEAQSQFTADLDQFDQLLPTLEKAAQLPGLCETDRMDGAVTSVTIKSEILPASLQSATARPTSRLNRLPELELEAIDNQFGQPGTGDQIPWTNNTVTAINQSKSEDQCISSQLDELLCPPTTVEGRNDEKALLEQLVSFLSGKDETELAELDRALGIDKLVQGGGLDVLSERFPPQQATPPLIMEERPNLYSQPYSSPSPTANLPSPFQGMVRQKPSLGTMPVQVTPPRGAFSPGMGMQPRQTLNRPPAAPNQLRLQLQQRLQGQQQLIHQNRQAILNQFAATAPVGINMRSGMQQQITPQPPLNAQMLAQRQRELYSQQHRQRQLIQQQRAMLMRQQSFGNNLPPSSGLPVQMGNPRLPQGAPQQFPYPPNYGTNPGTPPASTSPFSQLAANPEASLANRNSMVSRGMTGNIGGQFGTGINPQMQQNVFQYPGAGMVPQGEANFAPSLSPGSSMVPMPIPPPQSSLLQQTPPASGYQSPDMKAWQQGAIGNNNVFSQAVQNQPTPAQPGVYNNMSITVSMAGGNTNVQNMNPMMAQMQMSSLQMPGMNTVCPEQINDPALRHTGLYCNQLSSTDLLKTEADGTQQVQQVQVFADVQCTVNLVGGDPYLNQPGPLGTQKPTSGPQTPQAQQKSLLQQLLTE

[2] = target: Peroxisome proliferator-activated receptor gamma/Nuclear receptor coactivator 3 (Homo sapiens, UniProt P37231); assay: TR-FRET dose response biochemical High Throughput Screening assay for agonists of the steroid receptor coactivator 3 (SRC-3) recruitment by the peroxisome proliferator-activated receptor gamma (PPAR gamma): non-selective agonists. [Related pubchem assays: 1301 (Confirmation screen.), 1048 (Primary screen.)]; assay type: functional
Chain of Peroxisome proliferator-activated receptor gamma/Nuclear receptor coactivator 3 (P37231 whole entry): as the sequence (P37231 whole entry) above
Chain of Peroxisome proliferator-activated receptor gamma/Nuclear receptor coactivator 3 (Q9Y6Q9 whole entry, further chain): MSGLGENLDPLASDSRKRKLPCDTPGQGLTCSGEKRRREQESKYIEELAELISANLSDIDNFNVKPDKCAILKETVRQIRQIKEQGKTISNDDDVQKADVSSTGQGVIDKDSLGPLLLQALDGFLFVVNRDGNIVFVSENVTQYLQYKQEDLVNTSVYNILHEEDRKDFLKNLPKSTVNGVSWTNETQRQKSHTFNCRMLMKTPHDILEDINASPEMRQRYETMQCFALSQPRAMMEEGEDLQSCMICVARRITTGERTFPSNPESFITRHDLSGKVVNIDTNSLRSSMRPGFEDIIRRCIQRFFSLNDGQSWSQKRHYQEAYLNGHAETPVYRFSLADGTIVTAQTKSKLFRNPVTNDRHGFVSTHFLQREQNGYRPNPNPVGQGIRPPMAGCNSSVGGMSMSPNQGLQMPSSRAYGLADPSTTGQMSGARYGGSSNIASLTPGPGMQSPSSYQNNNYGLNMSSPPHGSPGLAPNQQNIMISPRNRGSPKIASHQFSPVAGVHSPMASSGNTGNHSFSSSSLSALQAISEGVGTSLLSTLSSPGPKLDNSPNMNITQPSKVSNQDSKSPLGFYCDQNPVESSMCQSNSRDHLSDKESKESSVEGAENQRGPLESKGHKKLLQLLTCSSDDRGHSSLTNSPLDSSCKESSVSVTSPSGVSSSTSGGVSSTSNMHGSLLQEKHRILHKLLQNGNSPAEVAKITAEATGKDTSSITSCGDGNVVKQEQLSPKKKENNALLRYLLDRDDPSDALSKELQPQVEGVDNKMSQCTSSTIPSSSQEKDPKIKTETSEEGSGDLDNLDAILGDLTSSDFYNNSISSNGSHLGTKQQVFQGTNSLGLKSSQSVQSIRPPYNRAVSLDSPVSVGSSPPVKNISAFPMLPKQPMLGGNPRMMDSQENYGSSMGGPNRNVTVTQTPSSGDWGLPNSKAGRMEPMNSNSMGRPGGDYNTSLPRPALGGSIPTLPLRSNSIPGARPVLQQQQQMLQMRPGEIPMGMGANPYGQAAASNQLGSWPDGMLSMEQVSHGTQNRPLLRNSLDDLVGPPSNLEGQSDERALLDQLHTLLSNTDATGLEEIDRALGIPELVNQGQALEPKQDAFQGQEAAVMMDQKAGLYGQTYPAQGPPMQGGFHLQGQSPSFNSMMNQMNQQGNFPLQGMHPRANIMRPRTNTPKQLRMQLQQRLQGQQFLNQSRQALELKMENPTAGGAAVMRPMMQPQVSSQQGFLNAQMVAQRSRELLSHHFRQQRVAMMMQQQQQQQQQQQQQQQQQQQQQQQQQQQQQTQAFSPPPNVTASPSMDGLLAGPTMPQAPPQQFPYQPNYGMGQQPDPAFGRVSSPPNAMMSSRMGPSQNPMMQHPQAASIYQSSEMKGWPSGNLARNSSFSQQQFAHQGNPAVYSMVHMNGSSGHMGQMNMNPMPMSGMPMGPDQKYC

[3] = target: Peroxisome proliferator-activated receptor gamma/Nuclear receptor coactivator 2 (Homo sapiens, UniProt P37231); assay: TR-FRET dose response biochemical High Throughput Screening assay for agonists of the steroid receptor coactivator 2 (SRC-2) recruitment by the peroxisome proliferator-activated receptor gamma (PPAR gamma): non-selective agonists. [Related pubchem assays: 1297, 1032 ]; assay type: functional
[4] = target: Heat shock protein HSP 90-alpha (Homo sapiens, UniProt P07900); assay type: functional, organism-based
[5] = CRF-BP/CRF-R2 complex antagonists, dose response, cell-based, uHTS hits, 384-well (AID 651639); assay type: functional, Homo sapiens; details: read-out: IC50_Mean
[6] = target: T1, Corticotropin-releasing factor receptor 2/Corticotropin-releasing factor-binding protein (Homo sapiens, UniProt P24387+Q13324); assay: activators of CRF receptor 2 with binding protein – uHTS hits, confirmation (AID 602473); assay type: functional; details: read-out: EC50_Mean
T1 sequence (Q13324 whole entry): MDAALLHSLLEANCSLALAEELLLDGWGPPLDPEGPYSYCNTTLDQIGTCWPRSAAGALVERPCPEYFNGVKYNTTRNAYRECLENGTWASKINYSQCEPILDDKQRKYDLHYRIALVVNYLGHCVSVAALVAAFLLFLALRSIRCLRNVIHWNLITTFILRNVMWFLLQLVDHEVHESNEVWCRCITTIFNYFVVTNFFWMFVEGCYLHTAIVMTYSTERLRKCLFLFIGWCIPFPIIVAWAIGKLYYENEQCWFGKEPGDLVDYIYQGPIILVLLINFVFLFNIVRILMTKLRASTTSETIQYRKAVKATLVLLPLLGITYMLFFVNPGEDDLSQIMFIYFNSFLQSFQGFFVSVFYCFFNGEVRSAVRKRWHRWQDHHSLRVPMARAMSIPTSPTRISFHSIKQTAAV
T1 sequence (P24387 whole entry): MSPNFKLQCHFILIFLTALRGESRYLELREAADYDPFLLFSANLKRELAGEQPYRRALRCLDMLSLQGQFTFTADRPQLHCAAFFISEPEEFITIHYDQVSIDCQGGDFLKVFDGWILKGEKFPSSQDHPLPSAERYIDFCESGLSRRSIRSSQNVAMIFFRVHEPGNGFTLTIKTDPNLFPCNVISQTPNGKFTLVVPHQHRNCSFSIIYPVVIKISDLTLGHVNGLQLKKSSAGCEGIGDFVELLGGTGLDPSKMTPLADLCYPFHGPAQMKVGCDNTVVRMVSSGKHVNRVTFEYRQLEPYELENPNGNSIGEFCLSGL

[7] = target: T1, Corticotropin-releasing factor receptor 2/Corticotropin-releasing factor-binding protein; assay: Dose Response confirmation of uHTS hits for small molecule antagonists of the CRF-binding protein and CRF-R2 receptor complex.; assay type: functional; details: read-out: IC50_Mean
Vero = Vero cell cytotoxicity, cytotoxicity control for flavivirus capping enzyme inhibitors (AID 588742); assay type: functional; details: Chlorocebus sabaeus
[8] = non-specific cell cytotoxicity, dose response, cytotoxicity control for PAX8 inhibitor project, plate reader, dry powder samples (AID 743021); assay type: functional, cell-based
[9] = THP-1 cell cytotoxicity, dose response, cytotoxicity control for Vif-APOBEC3G degradation inhibitor project, THP-1 cells (AID 1117359); assay type: functional; details: Human immunodeficiency virus 1, THP-1
[10] = target: Luciferin 4-monooxygenase (Photinus pyralis, UniProt P08659); assay: firefly luciferase enzyme inhibitors, dose response, biochemical, luminescence (AID 1891)
[11] = Luminescence Cell-Based Dose Confirmation HTS to Identify Inhibitors of Platelet Dense Granule Release. [Related pubchem assays: 1663 (Primary HTS), 1678 (Summary of Project)]; assay type: functional
Paired box protein Pax-8 = Paired box protein Pax-8 (Homo sapiens, UniProt Q06710); assay: inhibitors of PAX8-driven TPO luciferase reporter, dose response, RMG-I cells, cherry-pick (AID 687027); assay type: functional, cell-based;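 further: luciferase reporter driven by Pax8 target thyroperoxidase promoter measured by SteadyGlo luminescence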
Chain of Paired box protein Pax-8 (Q06710 whole entry): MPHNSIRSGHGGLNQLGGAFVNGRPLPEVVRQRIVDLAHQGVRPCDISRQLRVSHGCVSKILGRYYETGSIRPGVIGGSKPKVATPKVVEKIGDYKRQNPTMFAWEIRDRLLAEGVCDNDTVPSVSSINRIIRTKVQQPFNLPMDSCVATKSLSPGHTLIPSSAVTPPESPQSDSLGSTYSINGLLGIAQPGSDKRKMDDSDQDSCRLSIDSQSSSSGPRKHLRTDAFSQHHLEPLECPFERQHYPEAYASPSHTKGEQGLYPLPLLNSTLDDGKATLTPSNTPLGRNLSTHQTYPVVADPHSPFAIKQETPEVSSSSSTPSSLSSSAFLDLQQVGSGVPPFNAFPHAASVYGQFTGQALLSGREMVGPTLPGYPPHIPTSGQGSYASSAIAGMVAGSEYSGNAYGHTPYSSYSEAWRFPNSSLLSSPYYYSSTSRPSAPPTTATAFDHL

[12] = Luminescence Cell-Based Dose Retest to Confirm Inhibitors of Cancer Stem Cells. [Related pubchem assays (depositor defined):AID2717, AID2721]; assay type: functional; details: Homo sapiens
[13] = off-target signal loss in HeLa-CEM21 co-culture – HeLa F-luc CTL cells, cherry-picked, counter-screen for HIV-1 Env fusion inhibitor project, dose response (AID 652040); assay type: functional, cell-based;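 further: potency for signal decrease marking cytotoxic or nonspecific inhibition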
[14] = inhibitors of HIV Env-driven cell fusion, dose response, cherry-pick (AID 652057); assay type: functional, cell-based
[15] = ZM109 Env clade C HIV-1 fusion inhibitors, dose response, HeLa effector, CEM target cells, luciferase, cherry-pick (AID 652058); assay type: functional, cell-based
[16] = inhibitors of clade B AD8 Env fusion, dose response, cell-based, cherry-pick (AID 652062); assay type: functional;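 further: luciferase signal from cell-cell fusion driven by HIV-1 clade B AD8 Env; potency is for inhibitors of fusion seen as a drop in luminescence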
[17] = target: Mitogen-activated protein kinase 10 (Homo sapiens, UniProt P53779); assay: Dose response biochemical screening assay for inhibitors of c-Jun N-Terminal Kinase 3 (JNK3). [Related pubchem assays: 746 ]
Chain of Mitogen-activated protein kinase 10 (P53779 whole entry): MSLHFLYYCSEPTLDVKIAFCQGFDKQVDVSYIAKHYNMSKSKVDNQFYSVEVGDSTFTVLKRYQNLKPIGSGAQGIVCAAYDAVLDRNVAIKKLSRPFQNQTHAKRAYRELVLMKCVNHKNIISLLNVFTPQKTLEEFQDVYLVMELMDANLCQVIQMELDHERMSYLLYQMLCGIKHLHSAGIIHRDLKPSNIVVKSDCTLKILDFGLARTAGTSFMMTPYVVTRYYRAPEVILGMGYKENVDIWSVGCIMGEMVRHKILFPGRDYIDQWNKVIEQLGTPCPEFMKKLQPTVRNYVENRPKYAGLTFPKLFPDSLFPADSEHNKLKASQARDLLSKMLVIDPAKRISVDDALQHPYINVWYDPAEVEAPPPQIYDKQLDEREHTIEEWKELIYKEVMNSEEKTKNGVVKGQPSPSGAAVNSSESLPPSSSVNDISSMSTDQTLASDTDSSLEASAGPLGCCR

[18] = target: T2, Tyrosyl-DNA phosphodiesterase 2 (Homo sapiens, UniProt O95551); assay: human TDP2 enzyme inhibitors, dose response, biochemical, epi absorbance, IC50 (AID 743297)
T2 sequence (O95551 whole entry): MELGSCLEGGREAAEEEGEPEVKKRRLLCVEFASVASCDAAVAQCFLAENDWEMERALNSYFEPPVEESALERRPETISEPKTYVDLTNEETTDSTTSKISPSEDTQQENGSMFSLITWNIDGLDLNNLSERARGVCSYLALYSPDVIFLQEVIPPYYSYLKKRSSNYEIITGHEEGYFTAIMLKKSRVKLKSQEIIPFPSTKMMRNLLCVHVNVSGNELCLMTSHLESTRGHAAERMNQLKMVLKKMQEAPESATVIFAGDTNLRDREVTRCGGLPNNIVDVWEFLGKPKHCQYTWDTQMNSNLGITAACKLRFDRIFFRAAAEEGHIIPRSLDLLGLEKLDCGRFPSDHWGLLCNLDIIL

cells [19] = assay type: functional, cell-based
[20] = Shn3 3'UTR reporter inhibitors, dose response, cell-based, Clone20 osteoblasts, firefly luciferase, cherry-picked (AID 624132); assay type: functional;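 further: firefly luciferase luminescence from reporter carrying the Shn3 3'UTR in osteoblasts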
[21] = target: T3, Microphthalmia-associated transcription factor (Homo sapiens, UniProt O75030); assay: TRPM1 promoter luciferase signal decrease, dose response, MITF inhibitor project, cell-based, SK-MEL-5, cherry-picked, set 3 (AID 493073); assay type: functional
T3 sequence (O75030 whole entry): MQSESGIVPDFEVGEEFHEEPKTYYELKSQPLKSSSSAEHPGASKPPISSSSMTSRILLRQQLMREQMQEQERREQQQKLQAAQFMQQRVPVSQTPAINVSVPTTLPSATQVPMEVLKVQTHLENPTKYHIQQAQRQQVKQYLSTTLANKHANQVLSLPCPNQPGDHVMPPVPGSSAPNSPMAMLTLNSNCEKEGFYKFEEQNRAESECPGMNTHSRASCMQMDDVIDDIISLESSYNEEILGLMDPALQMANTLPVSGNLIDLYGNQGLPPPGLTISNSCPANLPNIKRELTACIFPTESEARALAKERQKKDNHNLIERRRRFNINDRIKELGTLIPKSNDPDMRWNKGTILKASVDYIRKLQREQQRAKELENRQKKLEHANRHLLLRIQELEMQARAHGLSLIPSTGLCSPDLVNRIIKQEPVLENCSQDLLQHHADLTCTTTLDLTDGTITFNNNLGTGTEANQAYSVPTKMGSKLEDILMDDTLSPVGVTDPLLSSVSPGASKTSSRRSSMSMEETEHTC

[22] = control 3'UTR Renilla luciferase suppression, dose response, counter-screen for Shn3 inhibitor project, cell-based, Clone20-Shn3RL, cherry-picked (AID 624133); assay type: functional
[23] = HepG2 cell cytotoxicity, dose response, cytotoxicity control for Shn3 inhibitor project, CellTiter-Glo, cherry-picked (AID 624134); assay type: functional, cell-based
cells [24] = assay type: functional, cell-based; remark: listed apart in the source
INS1 = assay: beta cell apoptosis inhibitors, cytokine rescue, dose response, luminescence, retest (AID 449756); assay type: functional, cell-based; details: Rattus norvegicus;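 further: cell death triggered by IL-1 beta plus TNF-alpha plus IFN-gamma mixture; protective hits raise ATP signal compared with cytokine alone wells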
[25] = HepG2 cell cytotoxicity, dose response, cytotoxicity control, cherry-picked samples (AID 1159577); assay type: functional, cell-based
[26] = P. falciparum Dd2 growth inhibitors, dose response, SYBR Green, cherry-picked samples (AID 1159567); assay type: functional, cell-based
[27] = tested on: Streptococcus sp. 'group A'; assay: growth inhibition of control SK(-) GAS strain, dose response, counter-screen for streptokinase expression inhibitor project, luminescence, kanamycin, BacTiterGlo, confirmation (AID 1900); assay type: functional, organism-based
Streptococcus = assay: Group A Streptococcus viability loss, dose response, counter-screen for streptokinase expression inhibitor project, luminescence, BacTiterGlo (AID 1915); assay type: functional, organism-based;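 further: potency for reduction of bacterial viability or growth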

SMILES: COc1ccccc1C1CC(c2ccccc2)=NN1C(S)=Nc1ccccc1 (configuration not stated)
- EC50 [1]: 9.45 µM (active)
- EC50 [2]: 80.4 µM (not active)
- EC50 [3]: 10.6 µM (not active)

SMILES: Cc1ccc(S(=O)(=O)Nc2ccc3cc([N+](=O)[O-])ccc3c2[N+](=O)[O-])cc1
- AC50 [4]: 14.9 µM (active)
- IC50 [5]: 15 µM (active)
- EC50 [6]: > 53 µM (inactive)
- IC50 [7]: 6.45 µM (active)

SMILES: Cc1ccc(SCc2noc(-c3c(C)noc3C)n2)cc1
- IC50 [5]: > 20 µM (inactive)
- EC50 [6]: > 53 µM (inactive)
- IC50 [7]: < 0.368 µM (active)

SMILES: Nc1nc(Sc2ccc([N+](=O)[O-])c3nonc23)c2nc[nH]c2n1
- CC50 (Vero): 5.9 µM (active)
- AC50 [8]: 1.17 µM (active)
- CC50 [9]: 680 nM (active)

SMILES: CCOc1ccc(C(=O)O/N=C(\N)c2ccccn2)cc1
- EC50 [10]: 847 nM (active)
- AC50 [8]: 34.9 µM (active)
- EC50 [11]: 499 nM (active)
- AC50 (Paired box protein Pax-8): 7.43 µM (active)

SMILES: CCCCCCOc1ccc(OC(=O)c2ccncc2)cc1
- AC50 [12]: 3.67 µM (active)
- AC50 [13]: 5.4 µM (active)
- AC50 [14]: 4.71 µM (active)
- AC50 [15]: 44.6 µM (active)

SMILES: CCn1nc(C)c(NC(=O)Nc2cccc(Cl)c2Cl)c1C
- IC50 [5]: 11 µM (active)
- EC50 [6]: > 53 µM (inactive)
- IC50 [7]: 36.7 µM (active)

SMILES: COc1ccc(N(CC(=O)NCCSCc2ccc(Cl)cc2)S(C)(=O)=O)cc1Cl
- AC50 [13]: 5.7 µM (active)
- AC50 [14]: 2.9 µM (active)
- AC50 [16]: 6.47 µM (active)
- AC50 [15]: 4.11 µM (active)

SMILES: COc1ccccc1OCC(=O)Nc1nnc(-c2ccco2)s1
- EC50 [1]: 42.4 µM (inactive)
- EC50 [2]: > 79.4 µM (not active)
- EC50 [3]: 32.1 µM (not active)

SMILES: COc1cc(C(=O)NCc2cn3ccsc3n2)cc(OC)c1OC
- IC50 [17]: 53.1 µM (not active)

SMILES: C[C@H](CO)N1C[C@H](C)[C@H](CN(C)S(=O)(=O)c2ccccc2)Oc2ccc(NC(=O)Nc3ccccc3)cc2CC1=O
- AC50 [14]: < 0.26 µM (active)
- AC50 [16]: 3 µM (active)
- AC50 [15]: 0.414 µM (active)

SMILES: Fc1ccc(Nc2cncc(-c3ccsc3)c2)cc1Cl
- IC50 [18]: 13.6 µM (inactive)

SMILES: O=C(c1ccccc1)c1nc[nH]c1C(=O)Nc1ccccn1
- IC50 [17]: > 93.1 µM (not active)

SMILES: COc1ccccc1NC(=O)c1nc(S(=O)(=O)Cc2ccccc2)ncc1Cl
- EC50 (cells [19]): > 350 µM (not active)
- AC50 [20]: 492 nM (active)
- AC50 [21]: 8.91 µM (active)
- AC50 [22]: 6.58 µM (active)
- AC50 [8]: 21.1 µM (active)
- AC50 [23]: 14.2 µM (active)
- AC50 (Paired box protein Pax-8): 8.83 µM (active)
- EC50 (cells [24]): 5 µM (active)
- AC50 (INS1): 6.44 µM (active)

SMILES: CC(=O)C1=C(C)N(Cc2ccc(Br)cc2)C(=S)NC1c1cccc(Cl)c1 (configuration not stated)
- AC50 [13]: 10 µM (active)
- AC50 [14]: 4.14 µM (active)
- AC50 [16]: 28.4 µM (active)
- AC50 [15]: 6.83 µM (active)

SMILES: Cc1ccccc1S(=O)(=O)Nc1nc2ccccc2nc1N1CCOCC1
- EC50 [1]: 10.1 µM (inactive)
- EC50 [2]: > 79.4 µM (not active)
- EC50 [3]: 11.8 µM (not active)

SMILES: N#C[C@@H]1[C@@H](c2ccc(C#Cc3ccc(F)cc3)cc2)[C@H](CO)N1C(=O)C1CCC1
- AC50 [25]: > 39 µM (inactive)
- AC50 [26]: 6.15 µM (active)

SMILES: Cc1cc(O)nc(SCC(=O)Nc2ccc(Br)cc2)c1C#N
- EC50 [27]: 6.89 µM (active)
- IC50 [5]: 15.4 µM (active)
- EC50 (Streptococcus): 20.1 µM (active)

SMILES: Fc1ccccc1CSc1ncnc2c1oc1ccccc12
- EC50 [1]: 44.1 µM (inactive)
- EC50 [2]: > 79.4 µM (not active)
- EC50 [3]: 20 µM (not active)

SMILES: COc1ccc(C2C(C(=O)NCc3ccco3)CCC(=O)N2c2ccc(OC)cc2)cc1 (configuration not stated)
- IC50 [17]: > 93.1 µM (not active)
